Measurements as given in PubChem BioAssay AID328 (DTP/NCI, 2004).
“And” between values parts separate entries of the source, which are not always exact repeats. Equal values may be shown once. Inconclusive results and toxic doses are left out.

Tested on: BDF1 mice, P388 leukemia ip, median survival T/C
Test: NCI In Vivo Anticancer Drug Screen. Data for tumor model P388 Leukemia (intraperitoneal) in B6D2F1 (BDF1) mice
Conditions: endpoint: median survival time, higher = longer survival
Method in brief: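 Mice carrying the transplantable tumour receive compound or vehicle. Survival is followed in each arm, and the treated measure is divided by the vehicle measure.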

[1] = dose: 50.0 mg/kg/injection, schedule: Q01DX009 (ip), vehicle: saline with Tween-80
[2] = dose: 100.0 mg/kg/injection, schedule: Q01DX009 (ip), vehicle: saline with Tween-80
[3] = dose: 100.0 mg/kg/injection, schedule: Q04DX003 (ip), vehicle: saline with Tween-80
[4] = dose: 200.0 mg/kg/injection, schedule: Q01DX009 (ip), vehicle: saline with Tween-80
[5] = dose: 10.0 mg/kg/injection, schedule: Q01DX009 (ip), vehicle: saline
[6] = dose: 25.0 mg/kg/injection, schedule: Q04DX003 (ip), vehicle: saline with Tween-80
[7] = dose: 50.0 mg/kg/injection, schedule: Q04DX003 (ip), vehicle: saline with Tween-80
[8] = dose: 50.0 mg/kg/injection, schedule: Q01DX001 (ip), vehicle: Klucel (hydroxypropylcellulose) (HPC)
[9] = dose: 100.0 mg/kg/injection, schedule: Q01DX001 (ip), vehicle: Klucel (hydroxypropylcellulose) (HPC)
[10] = dose: 100.0 mg/kg/injection, schedule: Q01DX009 (ip), vehicle: saline
[11] = dose: 100.0 mg/kg/injection, schedule: Q04DX003 (ip), vehicle: saline
[12] = dose: 200.0 mg/kg/injection, schedule: Q01DX009 (ip), vehicle: saline
[13] = dose: 200.0 mg/kg/injection, schedule: Q04DX003 (ip), vehicle: saline
[14] = dose: 400.0 mg/kg/injection, schedule: Q01DX009 (ip), vehicle: saline
[15] = dose: 400.0 mg/kg/injection, schedule: Q04DX003 (ip), vehicle: saline
[16] = dose: 200.0 mg/kg/injection, schedule: Q01DX001 (ip), vehicle: Klucel (hydroxypropylcellulose) (HPC)
[17] = dose: 50.0 mg/kg/injection, schedule: Q01DX009 (ip), vehicle: Klucel (hydroxypropylcellulose) (HPC)

## COc1ccc(/C=C/C(=O)c2ccc(Cl)cc2)c(OC)c1
dose: 25.0 mg/kg/injection, schedule: Q01DX009 (ip), vehicle: saline with Tween-80
  T/C: 95 % of control
[1]
  T/C: 100 % of control
[2]
  T/C: 109 % of control
[3]
  T/C: 109 % of control
[4]
  T/C: 100 % of control
dose: 200.0 mg/kg/injection, schedule: Q04DX003 (ip), vehicle: saline with Tween-80
  T/C: 95 % of control
dose: 400.0 mg/kg/injection, schedule: Q04DX003 (ip), vehicle: saline with Tween-80
  T/C: 90 % of control

## OC1CCCCC2CC12 (configuration not stated)
[1]
  T/C: 101 % of control
[2]
  T/C: 101 % of control
[4]
  T/C: 102 % of control

## COc1ccc(C(=O)/C=C/c2ccccc2)c(O)c1CC=C(C)C
dose: 1.25 mg/kg/injection, schedule: Q01DX009 (ip), vehicle: Klucel (hydroxypropylcellulose) (HPC)
  T/C: 114 % of control
dose: 2.5 mg/kg/injection, schedule: Q01DX009 (ip), vehicle: Klucel (hydroxypropylcellulose) (HPC)
  T/C: 118 % of control
dose: 5.0 mg/kg/injection, schedule: Q01DX009 (ip), vehicle: Klucel (hydroxypropylcellulose) (HPC)
  T/C: 91 % of control
dose: 10.0 mg/kg/injection, schedule: Q01DX009 (ip), vehicle: Klucel (hydroxypropylcellulose) (HPC)
  T/C: 91 % of control
dose: 20.0 mg/kg/injection, schedule: Q01DX009 (ip), vehicle: Klucel (hydroxypropylcellulose) (HPC)
  T/C: 95 % of control
dose: 40.0 mg/kg/injection, schedule: Q01DX009 (ip), vehicle: Klucel (hydroxypropylcellulose) (HPC)
  T/C: 91 % of control

## Cn1c(CCCC(=O)O)nc2cc(N(CCCl)CCCl)ccc21
dose: 1.8 mg/kg/injection, schedule: Q04DX003 (ip), vehicle: saline
  T/C: 116 % of control
dose: 2.5 mg/kg/injection, schedule: Q01DX009 (ip), vehicle: saline
  T/C: 154 % of control
dose: 4.3 mg/kg/injection, schedule: Q04DX003 (ip), vehicle: saline with Tween-80
  T/C: 175 % of control
dose: 5.0 mg/kg/injection, schedule: Q01DX009 (ip), vehicle: saline
  T/C: 166 % of control
dose: 6.5 mg/kg/injection, schedule: Q04DX003 (ip), vehicle: saline with Tween-80
  T/C: 185 % of control
dose: 9.9 mg/kg/injection, schedule: Q04DX003 (ip), vehicle: saline with Tween-80
  T/C: 180 % of control
[5]
  T/C: 200 % of control
dose: 15.0 mg/kg/injection, schedule: Q04DX003 (ip), vehicle: saline with Tween-80
  T/C: 200 % of control
dose: 22.5 mg/kg/injection, schedule: Q04DX003 (ip), vehicle: saline with Tween-80
  T/C: 180 % of control

## CCN(CCS)Cc1ccccc1
[6]
  T/C: 100 % of control
[7]
  T/C: 104 % of control
[3]
  T/C: 109 % of control

## c1ccc(-n2nc3c(c2-c2ccc(OCCN4CCCC4)cc2)CCCc2ccccc2-3)cc1
[6]
  T/C: 120 % of control
[7]
  T/C: 120 % of control
[3]
  T/C: 100 % of control

## COc1c(C#N)c2c(c(OC)c1OC)-c1ccc(OC)c(=O)cc1[C@@H](NC(C)=O)CC2
dose: 6.25 mg/kg/injection, schedule: Q01DX009 (ip), vehicle: Klucel (hydroxypropylcellulose) (HPC)
  T/C: 119 % of control

## Cc1cc2c(cc1C)NC(=O)CC(=O)N2
dose: 100.0 mg/kg/injection, schedule: Q04DX003 (ip), vehicle: Klucel (hydroxypropylcellulose) (HPC)
  T/C: 100 % of control
dose: 200.0 mg/kg/injection, schedule: Q04DX003 (ip), vehicle: Klucel (hydroxypropylcellulose) (HPC)
  T/C: 86 % of control
dose: 400.0 mg/kg/injection, schedule: Q04DX003 (ip), vehicle: Klucel (hydroxypropylcellulose) (HPC)
  T/C: 86 % of control

## CCCCOB(CCl)OCCCC
dose: 6.25 mg/kg/injection, schedule: Q01DX001 (ip), vehicle: saline
  T/C: 104 % of control
dose: 12.5 mg/kg/injection, schedule: Q01DX001 (ip), vehicle: saline
  T/C: 100 % of control
dose: 25.0 mg/kg/injection, schedule: Q01DX001 (ip), vehicle: saline
  T/C: 100 % of control

## COc1ccc(N2C(=O)CC(Sc3ccccc3N)C2=O)cc1 (configuration not stated)
[8]
  T/C: 100 % of control
[9]
  T/C: 104 % of control

## COC(=O)C1Cc2c([nH]c3ccccc23)CN1 (configuration not stated)
[5]
  T/C: 116 % of control
dose: 10.0 mg/kg/injection, schedule: Q04DX003 (ip), vehicle: saline
  T/C: 95 % of control
dose: 20.0 mg/kg/injection, schedule: Q01DX009 (ip), vehicle: saline
  T/C: 100 % of control
dose: 20.0 mg/kg/injection, schedule: Q04DX003 (ip), vehicle: saline
  T/C: 109 % of control
dose: 40.0 mg/kg/injection, schedule: Q01DX009 (ip), vehicle: saline
  T/C: 112 % of control
dose: 40.0 mg/kg/injection, schedule: Q04DX003 (ip), vehicle: saline
  T/C: 95 % of control

## C[N+](C)(Cc1ccccc1)/N=C(\[O-])Cc1ccccc1
dose: 50.0 mg/kg/injection, schedule: Q01DX001 (ip), vehicle: saline
  T/C: 109 % of control
dose: 100.0 mg/kg/injection, schedule: Q01DX001 (ip), vehicle: saline
  T/C: 104 % of control

## Cc1cnn(O)c(=NCCCl)n1
dose: 100.0 mg/kg/injection, schedule: Q04DX002 (ip), vehicle: saline with Tween-80
  T/C: 99 % of control
dose: 200.0 mg/kg/injection, schedule: Q04DX002 (ip), vehicle: saline with Tween-80
  T/C: 99 % of control
dose: 400.0 mg/kg/injection, schedule: Q04DX002 (ip), vehicle: saline with Tween-80
  T/C: 99 % of control

## O=C(Cn1ccc(O)cc1=O)N1CCC2(CC1)SSC1(CCN(C(=O)Cn3ccc(O)cc3=O)CC1)S2
[10]
  T/C: 100 % of control
[11]
  T/C: 105 % of control
[12]
  T/C: 100 % of control
[13]
  T/C: 116 % of control
[14]
  T/C: 95 % of control
[15]
  T/C: 122 % of control

## O=C1C(O)=Cc2cn(CCO)c(=O)c3ccc(-c4ccccc4)c1c23
[8]
  T/C: 100 % of control
[9]
  T/C: 100 % of control
[16]
  T/C: 104 % of control

## NC(Cc1cc(Br)c(O)c(Br)c1)C(=O)O (configuration not stated)
dose: 25.0 mg/kg/injection, schedule: Q01DX009 (ip), vehicle: saline
  T/C: 108 % of control
dose: 50.0 mg/kg/injection, schedule: Q01DX009 (ip), vehicle: saline
  T/C: 92 % of control
dose: 50.0 mg/kg/injection, schedule: Q04DX003 (ip), vehicle: saline
  T/C: 120 % of control
[10]
  T/C: 96 % of control
[11]
  T/C: 105 % of control
[12]
  T/C: 120 % of control
[13]
  T/C: 115 % of control
[14]
  T/C: 113 % of control

## CCCCCCCCCCCCCCCCNC(=S)Nc1ccc(C(=O)O)cc1
[8]
  T/C: 113 % of control
[9]
  T/C: 109 % of control
[16]
  T/C: 100 % of control

## CC(Br)(C(Br)c1ccccc1)[N+](=O)[O-] (configuration not stated)
[17]
  T/C: 123 % of control

## CN(C)C(=O)NNC(=O)N(C)C
[10]
  T/C: 104 % of control
[11]
  T/C: 100 % of control
[12]
  T/C: 95 % of control
[13]
  T/C: 100 % of control
[14]
  T/C: 95 % of control
[15]
  T/C: 100 % of control

## O=C(Nc1ccccc1F)Nc1ccccc1Cl
dose: 25.0 mg/kg/injection, schedule: Q01DX009 (ip), vehicle: Klucel (hydroxypropylcellulose) (HPC)
  T/C: 110 % of control and 112 % of control
[17]
  T/C: 86 % of control and 105 % of control
dose: 100.0 mg/kg/injection, schedule: Q01DX009 (ip), vehicle: Klucel (hydroxypropylcellulose) (HPC)
  T/C: 101 % of control and 110 % of control
dose: 200.0 mg/kg/injection, schedule: Q01DX009 (ip), vehicle: Klucel (hydroxypropylcellulose) (HPC)
  T/C: 97 % of control and 120 % of control
dose: 400.0 mg/kg/injection, schedule: Q01DX009 (ip), vehicle: Klucel (hydroxypropylcellulose) (HPC)
  T/C: 106 % of control and 107 % of control and 117 % of control

## O=C(c1ccccc1)C(Cl)C(=O)c1ccccc1
dose: 50.0 mg/kg/injection, schedule: Q01DX001 (ip), vehicle: saline with Tween-80
  T/C: 108 % of control
dose: 65.0 mg/kg/injection, schedule: Q01DX001 (ip), vehicle: saline with Tween-80
  T/C: 120 % of control
dose: 150.0 mg/kg/injection, schedule: Q01DX001 (ip), vehicle: saline with Tween-80
  T/C: 101 % of control
dose: 200.0 mg/kg/injection, schedule: Q01DX001 (ip), vehicle: saline with Tween-80
  T/C: 105 % of control
